Data published in patent US8835410B2, “Treatment of eyelid dermatitis” (Bodor Laboratories, Inc., priority 2011, dated 2014).
“Also recorded” adds a separate entry of the source. Marks after values point to notes of the source that are not given here.

Key:
[1] = Stability of LE in aqueous suspension with or without Δ^1-cortienic acid at room temperature (HPLC); format: physicochemical; details: for k: 421 days
Description: To investigate the effect of Δ^1-cortienic acid (Δ^1-CA) on the stability of loteprednol etabonate (LE), the following experiments were conducted at room temperature (22.5° C.):
Inactives: Δ^1-CA, 0.1% (2.897 mM) & 0.2% (5.795 mM); Glycerin, Povidone, Tyloxapol, Edetate Disodium Dihydrate, Purified Water.
Preservative added: Benzalkonium Chloride 0.01%
• 1) To the mixture of 9.32 g glycerin (USP, 99.7%), 7.2 g Povidone (USP, 90000), 1.2 g Tyloxapol (USP), 0.08 g benzalkonium chloride (USP, […] of 50% solution), and 0.04 g Edetate Disodium Dihydrate (USP), 400 ml Purified Water (USP) was added. 2) The mixture was sonicated for 20 minutes to make a homogenous solution, and its pH was measured. 3) To 150 ml of each solution was added 0.15 g or 0.3 g of loteprednol etabonate (micronized), and the mixture was sonicated for 30 minutes to obtain two LE-only suspensions at 0.1% & 0.2%, respectively. 4) From each LE-only suspension (0.1 & 0.2%), 75 ml was taken and combined with micronized Δ^1-CA (0.075 & 0.15 g). 5) All four suspensions were mixed and sonicated again for another 30 minutes, and the pH of each was measured (Blank vehicle pH 3.4; LE only suspensions, pH 3.5; LE+Δ^1-CA suspensions, pH 3.3). 6) Each of the four suspensions was separated/pipetted (1 ml) into 8 ml amber vials (1 ml/vial) and the vials were sealed with caps and parafilm. 7) Half of each formula 1 ml/vial samples were loaded on a shaker for continuous shaking (170 times/min), and the other half of the samples were only shaken vigorously by hand each time before HPLC sample preparation. 8) For periodical samplings, one sample of every set of suspensions was taken and analyzed by HPLC. 9) All procedures were conducted at 22.5° C. Sample Preparation
The change of LE and its degradation products AE (acid etabonate) and Δ^1-CA in the suspensions was measured periodically. A vial of each series of suspensions was randomly taken, mixed/washed with 50% acetonitrile, and transferred to a 10 ml cylinder to make a final volume of 10 ml solution (about 100 μg/ml for LE 0.1% or 200 μg/ml for LE 0.2% samples).
A HPLC system operating at ambient temperature was used to quantitative determination of LE, AE and Δ^1-CA. Phenonemax Luna C18 (5μ, 150×4.6 mm) was connected to a Spectra-Physics component system consisting of a SP 8810 precision isocratic pump, a Rheodyne 7125 injector (injection volume 20 μl), a SP 8450 UV/VIS variable wavelength detector (operated at 254 nm), and a SP 4290 integrator. At a flow rate of 1 ml/min, a mobile phase consisting of acetonitrile, acetic acid, and water in a volume ratio of 60:0.2:40 eluted LE, AE and Δ^1-CA at 7.5, 3.2, and 2.2 min, respectively. Each sample was run in triplicate. The change in peak-area was recorded, and the percent ratio of each compound (LE, AE, and Δ^1-CA) toward total (LE+AE+Δ^1-CA) in peak-area was used to evaluate the disappearance of LE as well as the appearance of AE and Δ^1-CA. Since Δ^1-CA was used as an additive for LE+Δ^1-CA samples, the appearance of Δ^1-CA (from AE) was in the error range of these samples, and furthermore, in the LE-only samples, Δ^1-CA was observed from zero-time at 0.36±0.19% of total (LE+AE+Δ^1-CA), and less than, or about 0.5% thereafter in all LE-only samples; the number 0.5% was used as the amount of Δ^1-CA for all of LE+Δ^1-CA samples.

patient with necrobiosis = experiment: Topical treatment of a patient with necrobiosis; format: in vivo, human; details: LE as 0.5% cream of Example 2
From the text: Further confirmation has been found in a patient with necrobiosis.

Sprague-Dawley rats = experiment: Effect of steroid ointments on skin atrophy and thymus weight in rats; format: in vivo, rat; details: for PERCENT DECREASE IN SKIN THICKNESS / PERCENT DECREASE IN THYMUS WEIGHT: ointment on shaved dorsal skin, vs controls; for effect on thymus weight (in words) / skin atrophy (in words): topical ointment
Description: To investigate the effects of loteprednol etabonate (LE) on skin atrophy and thymus weight, the following experiments were conducted: Loteprednol etabonate (LE) and betamethasone valerate (BMV) were formulated by Otsuka Pharmaceuticals at a concentation of 0.1% in a white petrolatum base containing 5% propylene carbonate. All other test materials were steroidal anti-inflammatory compounds [Locoid® or hydrocortisone 17-butyrate (HCB) and Rinderon® or betamethasone 17-valerate (BMV-R) or white petrolatum vehicle as a control] which were commercially available in Japan at the time of testing. Sprague-Dawley rats were used in this study. All animals were from the animal research facilities of Otsuka Pharmaceutical Co. Ltd., Tokushima, Japan and all animal care and housing were according to their standard procedures. Groups of male rats (Sprague Dawley) weighing about 200-240 g were shaved on the dorsal surface. Loteprednol etabonate and betamethasone 17-valerate were administered as 0.1% ointments using white petrolatum base containing 5% propylene carbonate (PC). In separate groups, 0.12% betamethasone 17-valerate (Rinderon®), 0.1% hydrocortisone 17-butyrate (Locoid®) were administered as comparators. White petrolatum base (+5% PC) was administered to control animals. Two schedules of dosing were used: 200 mg/rat for 14 days (n=5) or 400 mg/rat for 7 days (n=7). At the end of these periods, rats were sacrificed. The thickness of a 1 cm^2 section of skin from the treated area was measured. The thymus was removed and weighed.

[2] = clinical trials, compared to prednisolone; cited from earlier work
[3] = anti-inflammatory activity; cited from earlier work
hairless mice = experiment: Multi-week topical (photocarcinogenicity) study of loteprednol etabonate cream in hairless mice, with or without simulated sunlight; skinfold thickness; format: in vivo, mouse
Description: To investigate photocarcinogenicity, a multi-week study of loteprednol etabonate cream in hairless mice, with or without simulated sunlight, was undertaken. […] Because effects on skin atrophy were also recorded, however, and because a period of 4 weeks is the maximum recommended treatment period for eyelid dermatitis, results for the first 4 weeks of the study are given below. Mice were treated with the cream formulation once daily, five days per week. In the portion of the test summarized below, the cream contained LE in amounts of 0, 0.25% by weight and 0.5% by weight. (Higher concentrations were tested but results are not given here). Week 0 was baseline. After 4 weeks, skin thickness measurements were taken using a caliper. The cream also contained glycerin 99% USP, benzyl alcohol NF, purified water USP, carbomer 940 NF (Carbopol 980), glyceryl stearate/PEG 100 stearate, trolamine 99F, cetyl alcohol NF, stearyl alcohol NF, white petrolatum USP, light mineral oil NF and dimethicone (50 cst).

[4] = LE 0.1% + Δ^1-CA 0.1% suspension, 22.5° C.
[5] = LE 0.1% suspension, no Δ^1-CA, 22.5° C.
[6] = LE 0.2% + Δ^1-CA 0.2% suspension, 22.5° C.
[7] = LE 0.2% suspension, no Δ^1-CA, 22.5° C.
[8] = regimens of Table 2, listed as loteprednol etabonate

SMILES | effect on inflammation / necrobiosis (patient with necrobiosis) | skin atrophy (skin thinning) (patient with necrobiosis) | PERCENT DECREASE IN SKIN THICKNESS (Sprague-Dawley rats; 200 mg/day - 14 d) | PERCENT DECREASE IN THYMUS WEIGHT (Sprague-Dawley rats; 200 mg/day - 14 d) | effect on thymus weight (in words) (Sprague-Dawley rats; regimens of Table 2) | skin atrophy (in words) (Sprague-Dawley rats; regimens of Table 2) | PERCENT DECREASE IN SKIN THICKNESS (Sprague-Dawley rats; 400 mg/day - 7 d) | PERCENT DECREASE IN THYMUS WEIGHT (Sprague-Dawley rats; 400 mg/day - 7 d) | further results
CCOC(=O)OC1(C(=O)O)CC[C@H]2[C@@H]3CCC4=CC(=O)C=C[C@]4(C)[C@H]3C(O)C[C@@]21C (stereo partly shown) [AE] | – | – | – | – | – | – | – | – | stability of degradation product AE in the suspension ([1]; aqueous LE suspensions, 22.5° C.): stable
CCCCC(=O)O[C@]1(C(=O)CO)[C@@H](C)C[C@H]2[C@@H]3CCC4=CC(=O)C=C[C@]4(C)[C@@]3(F)[C@@H](O)C[C@@]21C [BMV, betamethasone 17-valerate] | successful in lessening inflammation | thinned the skin | 12.8* PERCENT | 70.1** PERCENT | significant decreases in thymus weight | caused skin atrophy | – | – | effect on thymus weight (in words) (Sprague-Dawley rats; regimens of Table 2, listed as Betamethasone valerate): most significant decreases in thymus weight
CCCC(=O)O[C@]1(C(=O)CO)CC[C@H]2[C@@H]3CCC4=CC(=O)CC[C@]4(C)[C@H]3[C@@H](O)C[C@@]21C [HCB, hydrocortisone 17-butyrate] | – | – | 17.9* PERCENT | 29.5* PERCENT | significant decreases in thymus weight | most marked; also recorded: caused skin atrophy | 12.8* PERCENT | 36.0** PERCENT | –
CCOC(=O)O[C@]1(C(=O)OCCl)CC[C@H]2[C@@H]3CCC4=CC(=O)C=C[C@]4(C)[C@H]3[C@@H](O)C[C@@]21C [LE, chloromethyl 17α-ethoxycarbonyloxy-11β-hydroxyandrosta-1,4-dien-3-one-17β-carboxylate] | effective in treating the necrobiosis by lessening inflammation | did not cause skin atrophy | 6.5% | 12.8% | minimal effects on skin atrophy and thymus weight | minimal effects on skin atrophy and thymus weight | 10.3% | −2.5% | cataracts [2]: did not elevate intraocular pressure or cause cataracts; elevation of intraocular pressure [2]: did not elevate intraocular pressure; activity relative to hydrocortisone (HC) [3]: approximately 20 times; t95% [1, 4]: 3.66 year; k [1, 4]: 3.84 day^−1 × 10^−5; t95% [1, 5]: 2.10 year; k [1, 5]: 6.69 day^−1 × 10^−5; t95% [1, 6]: 6.12 year; k [1, 6]: 2.30 day^−1 × 10^−5; t95% [1, 7]: 3.21 year; k [1, 7]: 4.38 day^−1 × 10^−5; stabilization of LE by increase in concentration ([1]; concentration from 0.1% to 0.2%, in either LE-only or LE+Δ^1-CA suspension): more than 1.5 times; stabilization of LE by Δ^1-cortienic acid relative to LE in the absence of the enhancer (increase of half-life) ([1]; same concentration of Δ^1-CA added to LE suspension): between one and one-half and two times; also recorded: almost two times; skin atrophy (in words) (hairless mice; 1.5% and 4.5% by weight of LE and/or study extended to week 8 and week 13): more skin atrophy was seen; effect on skin thickness (in words) (hairless mice; LE at 0.25% and 0.5%, application for four weeks): no or minimal deleterious effect on skin thickness; skin atrophy (in words) (Sprague-Dawley rats; regimens of Table 2, listed as Loteprednol etabonate): did not cause a statistically significant decrease in skin thickness; effect on thymus weight (in words) (Sprague-Dawley rats; [8]): did not effect thymus weight significantly; skin atrophy (in words) (Sprague-Dawley rats; [8]): less skin atrophy
